Test results reported in patent US20230381322A1, “METHOD FOR PREPARING A DNA NETWORK WITH CONTROLLED CRYSTAL STRUCTURE AND A METHOD FOR INJECTING DRUGS USING THE DNA NETWORK” (UIF (University Industry Foundation), Yonsei University, priority 2022, published 2023).

Legend:
[1] = tested on: HeLa cells; test: Cytotoxicity of released Dox, MTT assay; format: cell-based; conditions: HeLa cells treated 24 h with Dox-released incubation solutions of pH 5.0, 6.4, 7.4
Protocol: Cell adhesion efficiencies were evaluated by incubating GelRed-labeled pDNets in cell media containing 2.5×10^5 Hela or NIH/3T3 cells for an hour. After the incubation, Calcein AM was used to stain the attached cells and the pDNets were washed three times with PBS. After staining, CLSM was used to visualize the respective fluorescence to determine the number of cells attached to each pDNet/mm^2. Evaluation of intracellular delivery of released Dox from pDNets was performed by loading pDNets with 20 nmol Dox. Dox-loaded pDNets were incubated in a pH 5.0, 6.4, and […] PBS solution for 32 h, which were then diluted 1, 2, and 4-fold with Dulbecco's modified Eagle's medium and used to treat 1×10^5 HeLa cells for 2 h. As a positive control, 20 nmol free Dox diluted similarly was used for treatment at final concentrations of 2, 4, and 8 μM to represent complete release of Dox. After the incubation, cell nuclei were stained with Hoechst and the intracellular delivery of Dox was compared using CLSM. […] After 24 h of treatment, cell viability was quantified using the MTT assay (Roche Diagnostics, Mannheim, Germany) following the manufacturer's protocol. […] The resulting formazan salts were dissolved by adding dimethyl sulfoxide, and the absorbance was measured at 570 nm using a multi-label microplate reader (Victor X5; Perkin Elmer).

[2] = tested on: HeLa cell-implanted BALB/c nude mice xenografts; test: Localized anticancer therapy, intratumoral injection; format: in vivo; conditions: single intratumoral injection, 2.5 mg/kg Dox, day 8
Protocol: All animal experiments were performed in compliance with the relevant laws and institutional guidelines of the Korea Institute of Science and Technology (KIST; KIST-2020-108). To evaluate the anticancer effects of pDNets, tumor-bearing BALB/c nude mice were prepared by injecting a suspension of 5×10^6 cells per mouse. The mice were divided into five groups (n=5): (1) PBS, (2) free DOX, (3) pDNet-H, (4) pDNet-M, and (5) pDNet-L. Each mouse was injected intratumorally with 2.5 mg/kg Dox when the size of the tumors was approximately 100-150 mm ^3. The tumor volumes and body weights of each mouse were observed every 2 days for 8 days. The length (L) and width (W) of the tumors were measured, and tumor volumes (V) were calculated using the following formula: V=L×W^2×0.52. To assess the biocompatibility of the pDNets, mice in each group were sacrificed after 8 days and the major organs were excised. To assess the biosafety of pDNets, the excised organs were paraffin-embedded and cut into 5 μm sections. Hematoxylin and eosin (H&E) staining was performed to observe the histopathological changes.

## COc1cccc2c1C(=O)c1c(O)c3c(c(O)c1C2=O)C[C@@](O)(C(=O)CO)C[C@@H]3O[C@H]1C[C@H](N)[C@H](O)[C@H](C)O1 [free Dox, doxorubicin]
[1]
  in vitro therapeutic effect (cell viability, MTT): most effective in vitro
[2]
  tumor volume reduction relative to the control group: ~35%
  tumor weight reduction relative to the control group: ~35%
